Literature values in US20060148027A1, “Sprouty and SPRED protein biosensors” (Board of Regents, the University of Texas System, priority 2005, published 2006).

Settings: known potential of the reference redox dye

redox potential: −289 mV
Compound: Cc1cc2nc3cc(C)c(N)cc3[n+](-c3ccccc3)c2cc1N.[Cl-] [Safranine O]
